We go through six compounds from patent US5470859A (priority 1989, dated 1995).

For test [1], the target named is muscarinic receptors. Put plainly: Radio ligand binding: displacement of the muscarinic agonist 3H-Oxotremorine-M (3H-OXO-M), rat cerebral cortex. Further details: species or system Hooded Lister rats. The following applies: 2 nM 3H-OXO-M, rat cerebral cortex membranes, 2 mM magnesium chloride, 37° C., 30 min.
In test [2] the target is muscarinic receptors. It counts as binding, Hooded Lister rats. The following applies: 0.27 nM 3H-QNB, rat cerebral cortex membranes, 37° C., 30 min.

Where a name gives a salt, the structure may show the parent alone. Read-outs that look alike come from different tables or passages of the source.

With `Nc1noc(/C=C2\CN3CCC2C3)n1` (racemic) [Example E1, (±) Z 3-([3-Amino-1,2,4-oxadiazol-5-yl]methin)-1-azabicyclo[2.2.1]heptane], the IC50 (as a rule, the concentration needed to halve the response being measured) at muscarinic receptors [1] was 11.8 nM; against muscarinic receptors [2] it was 3200 nM.
The like results for `C(=C1/CN2CCC1C2)/c1ncco1` (racemic) [Example E5, (±) Z 3-([1,3-Oxazol-2-yl]methin)-1-azabicyclo[2.2.1]heptane] were, in that order, 8.6 nM and 1800 nM.
The like results for `C(=C1/CN2CCC1C2)/c1nccs1` (racemic) [Example E10, (±) Z 3-([1,3-Thiazol-2-yl]methin)-1-azabicyclo[2.2.1]heptane oxalate salt] were, in that order, 165 nM and 2500 nM.
The like results for `Cc1noc(/C=C2\CN3CCC2C3)n1` (racemic) [Example E2, (±) Z 3-([3-Methyl-1,2,4-oxadiazol-5-yl]methin)-1-azabicyclo[2.2.1]heptane oxalate salt] were, in that order, 30 nM and 1900 nM.
On to `Nc1noc(C=C2CC3CCN(C2)C3)n1` (racemic) [Example E6, (±)E/Z 3-([3-Amino-1,2,4-oxadiazol-5-yl]methin)-1-azabicyclo[3.2.1]octane], for which the IC50 at muscarinic receptors [1] was found to be 520 nM; at muscarinic receptors [2] it was 5700 nM.
The like results for `C(=C1CN2CCC1C2)c1cnco1` (racemic) [Example E4, (±)E/Z 3-([1,3-Oxazol-5-yl]methin)-1-azabicyclo[2.2.1]heptane oxalate salt] were, in that order, 294 nM and 27900 nM.
